T1: MAO B (Homo sapiens, UniProt P27338)
T1 construct: expressed in transfected cells; host or cells: COS-7 (African green monkey), riboflavin-containing (Rib+) or riboflavin-depleted (Rib-), transient electroporation
T1 sequence (P27338 1-520): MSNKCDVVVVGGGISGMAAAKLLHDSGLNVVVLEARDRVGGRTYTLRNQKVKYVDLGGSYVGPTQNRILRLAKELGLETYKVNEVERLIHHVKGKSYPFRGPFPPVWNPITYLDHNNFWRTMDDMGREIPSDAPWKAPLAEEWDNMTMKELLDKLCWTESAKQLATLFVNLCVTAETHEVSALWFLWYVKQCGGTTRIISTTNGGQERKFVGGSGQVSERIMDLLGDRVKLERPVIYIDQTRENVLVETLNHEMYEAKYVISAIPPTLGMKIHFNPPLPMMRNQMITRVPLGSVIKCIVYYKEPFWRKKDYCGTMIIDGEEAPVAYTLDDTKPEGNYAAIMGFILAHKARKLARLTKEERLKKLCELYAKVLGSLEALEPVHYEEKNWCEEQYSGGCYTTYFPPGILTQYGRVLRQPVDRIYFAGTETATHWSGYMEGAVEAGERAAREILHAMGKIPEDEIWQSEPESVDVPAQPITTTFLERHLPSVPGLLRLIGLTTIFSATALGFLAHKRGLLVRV


Legend:
MAO B [1] = biological target: T1, MAO B; test: Quantitation of expressed MAO B protein by ELISA in transfected COS-7 cells; assay type: cell-based; parameters: MAO B Expressed: unit not given here; details: cofactor added with MAO B cDNA into Rib^- COS-7 cells; 48 hours; mean ± SE, three experiments
Procedure: Total protein concentrations of samples containing MAO B holoenzyme, apoenzyme, or variant MAO Bs were determined by a MicroBCA kit (Pierce). All samples were then adjusted to equal protein concentrations and assayed for MAO B protein by ELISA using a modification of the method of Yeomanson and Billett (25) as described previously (18).
MAO B cDNA was expressed sequentially at different time intervals in these cells during this riboflavin depletion process (FIG. 2). Each data point in FIG. 2 represents an individual expression assay. For each assay, a sample of COS-7 cells grown in riboflavin-free medium were transfected with MAO B cDNA via electroporation. Concurrently, Rib^+ COS-7 cells were transfected with MAO B cDNA to serve as a control. Following incubation for 48 hours, the cells were homogenized and assays were performed to determine protein concentration, MAO B concentration by ELISA using polyclonal antibodies, and MAO B activity using [^14 C] benzylamine.
An equal amount of MAO B cDNA (15 μg) was expressed in both types of […]

MAO B [2] = biological target: T1, MAO B; test: FAD coupling in intact cells: MAO B enzymatic activity after electroporation of MAO B cDNA with cofactor into Rib^- COS-7 cells ([^14 C] benzylamine substrate); assay type: cell-based; parameters: Percent of Holo-MAO B Activity: concentration or dose not given beside the values; details: for restoration of active MAO B (in words): cofactor added with MAO B cDNA during electroporation; for Enzymatic Activity: cofactor added with MAO B cDNA into Rib^- COS-7 cells, 48 hours, mean ± SE, three experiments; for Percent of Holo-MAO B Activity: relative to holo-MAO B expressed in Rib^+ COS-7 cells, 2880 min
Procedure: (§1) Wild-type or mutant MAO B cDNAs were transiently transfected into COS-7 cells by electroporation (23) as previously described (18). Briefly, Rib^+ - or Rib^- COS-7 cells were harvested during late log phase growth and resuspended to a concentration of 3.1×10^6 cells/ml in either riboflavin-containing or riboflavin-free medium, respectively. Wild-type or mutant MAO B cDNAs ([…]) were added to 0.8 ml of cell suspension. […] Electroporation was carried out in a Bio-Rad Gene Pulser with a setting of 250 V and 500 μF. Cells were resuspended in 15 ml of riboflavin-containing or riboflavin-free medium and incubated at 37° C. with 5% CO2. Transfected COS-7 cells were harvested at 48 hours and homogenized in a lysis solution containing 20 mM Tris-HCl, 1 mM EDTA, 0.5 mM PMSF, pH 8.0. The homogenate was diluted with an equal volume of the same buffer supplemented with 300 mM NaCl to obtain a 150 mM final NaCl concentration. Triton X-100 (Pierce) was added to the lysate to give a final concentration of 0.25%, and the samples were allowed to stir for 50 min. at 4° C. to extract MAO B from the outer mitochondrial membrane. After Triton extraction, the lysate was centrifuged at 1300×g for 5 min. at 4° C. to remove insoluble cell debris.
MAO B activity was assayed radiometrically by a modification of the method of Wurtman and Axelrod (26) as described previously (18). Briefly, the reaction mixture contained 200 μl of 50 mM sodium phosphate buffer (pH 7.4), 3.6 nmole of 55 mCi/mmol [^14 C] benzylamine hydrochloride (Amersham), 10 nmoles of unlabeled benzylamine and 10 μl of cell lysate. Samples were run in triplicate, and one out of each set was denatured with […] of 6N HCl prior to the addition of substrate to serve as an internal control. All reactions were incubated for 9 minutes at 37° C., and terminated by the addition of 25 μl of 6N HCl. The reaction product was extracted with 500 μl of toluene, and an aliquot (200 μl) of the organic phase from each sample was counted in liquid scintillation fluid (Bio-Safe) in a Beckman LB 3801 scintillation counter.
FMN or riboflavin were also capable of restoring approximately 75% of MAO B holoenzyme activity. However, only 40% of MAO B holoenzyme activity was obtained by the addition of 8α-hydroxyriboflavin.
Various cofactors were added with MAO B cDNA into Rib^- COS7 cells

MAO B [3] = test: [^14 C] FAD incorporation into wild-type or mutant MAO B in Rib^- COS-7 cells (immunoprecipitation, fluorography); assay type: binding, human; details: about 59 kDa; equal MAO B concentrations
Procedure: Mutagenesis was carried out by the method of Deng and Nickoloff (22) using a Transformer Site-directed Mutagenesis kit (Clontech). Glu in position 34 was replaced with Asp (E34D), Gln (E34Q), or Ala (E34A), and Val in position 10 was replaced with Ile (V10I) as described by Kwan et al. (18).
as §1
Transfected Rib^+ - or Rib^- COS-7 cells were homogenized, and extracted with 0.25% Triton X-100 for 50 minutes at 4° C. The cell lysates were centrifuged at 1300×g for 5 minutes, and an aliqout of each supernatant was analyzed for MAO B concentration by ELISA. All supernatants were then adjusted to equal MAO B concentration and incubated with polyclonal goat anti-MAO B antibody (10 μg) overnight at 4° C. Protein-G Sepharose beads (Pierce) were added (50 μl) and incubation was continued for 3 hours. The protein-G Sepharose/goat antibody/MAO B immmunocomplex was collected by centrifugation at 10,000×g for 20 seconds and washed 6 times with 150 μl of 20 mM Tris buffer, pH 8.0. The immunocomplex was then dissolved in SDS-PAGE sample buffer and analyzed by Western blot or fluorography.
The immunoprecipitated proteins (obtained as described above) were subjected to electrophoresis in a 10% SDS-polyacrylamide gel and examined by Western blotting as previously described (18). The immunoprecipitated proteins (obtained as described above) were subjected to electrophoresis in a 10% SDS-polyacrylamide gel. The SDS-PAGE gel was fixed by soaking in 7% acetic acid, 10% methanol, 83% H2 O for 1 hour, and then processed for fluorography as described by Bonner and Laskey (27). The dried gel was exposed to Kodak X-OMAT AR film at -80° C. for 2 weeks.
The expressed wild-type and variant MAO Bs were adjusted to equal concentrations using ELISA before immunoprecipitation, and then analyzed by fluorography. The amount of incorporation of [^14 C] […] FAD was incorporated into the enzyme.

Row | Molecule | MAO B Expressed (MAO B [1]) | restoration of active MAO B (in words) (MAO B [2]) | Percent of Holo-MAO B Activity (MAO B [2]) [%] | Percent of Holo-MAO B Activity (MAO B [2]; listed as 8α-hydroxyriboflavin) [%] | Enzymatic Activity (MAO B [2]) | MAO B activity relative to that obtained with riboflavin (MAO B [2]; Rib^- COS-7 cells) | [^14 C] FAD incorporation (band on fluorogram) (MAO B [3])
1 | Cc1cc2nc3c(=O)[nH]c(=O)nc-3n(C[C@H](O)[C@H](O)[C@H](O)CO)c2cc1C [Riboflavin, riboflavin] | 0.90 ± 0.13 | equal levels of MAO B activity | 76.1 |  | 0.86 ± 0.06 μmol benzylamine/minute/mg MAO |  | 
2 | NC(=O)c1ccc[n+]([C@@H]2O[C@H](COP(=O)(O)OP(=O)(O)OC[C@H]3O[C@@H](n4cnc5c(N)ncnc54)[C@H](O)[C@@H]3O)[C@@H](O)[C@H]2O)c1 [NAD^+] | 1.14 ± 0.06 | did not yield active MAO B | 1.8 |  | 0.02 ± 0.00 μmol benzylamine/minute/mg MAO |  | 
3 | wild-type: wild-type MAO B expressed in Rib^- COS-7 cells (protein, UniProt P27338 2-520, looked up) Amine oxidase …: SNKCDVVVVGGGISGMAAAKLLHDSGLNVVVLEARDRVGGRTYTLRNQKVKYVDLGGSYVGPTQNRILRLAKELGLETYKVNEVERLIHHVKGKSYPFRGPFPPVWNPITYLDHNNFWRTMDDMGREIPSDAPWKAPLAEEWDNMTMKELLDKLCWTESAKQLATLFVNLCVTAETHEVSALWFLWYVKQCGGTTRIISTTNGGQERKFVGGSGQVSERIMDLLGDRVKLERPVIYIDQTRENVLVETLNHEMYEAKYVISAIPPTLGMKIHFNPPLPMMRNQMITRVPLGSVIKCIVYYKEPFWRKKDYCGTMIIDGEEAPVAYTLDDTKPEGNYAAIMGFILAHKARKLARLTKEERLKKLCELYAKVLGSLEALEPVHYEEKNWCEEQYSGGCYTTYFPPGILTQYGRVLRQPVDRIYFAGTETATHWSGYMEGAVEAGERAAREILHAMGKIPEDEIWQSEPESVDVPAQPITTTFLERHLPSVPGLLRLIGLTTIFSATALGFLAHKRGLLVRV |  |  |  |  |  |  | dark band
4 | V10I: control variant, Val in position 10 replaced with Ile (protein, UniProt P27338 2-520, looked up, variant V10I) Amine oxidase …: SNKCDVVVIGGGISGMAAAKLLHDSGLNVVVLEARDRVGGRTYTLRNQKVKYVDLGGSYVGPTQNRILRLAKELGLETYKVNEVERLIHHVKGKSYPFRGPFPPVWNPITYLDHNNFWRTMDDMGREIPSDAPWKAPLAEEWDNMTMKELLDKLCWTESAKQLATLFVNLCVTAETHEVSALWFLWYVKQCGGTTRIISTTNGGQERKFVGGSGQVSERIMDLLGDRVKLERPVIYIDQTRENVLVETLNHEMYEAKYVISAIPPTLGMKIHFNPPLPMMRNQMITRVPLGSVIKCIVYYKEPFWRKKDYCGTMIIDGEEAPVAYTLDDTKPEGNYAAIMGFILAHKARKLARLTKEERLKKLCELYAKVLGSLEALEPVHYEEKNWCEEQYSGGCYTTYFPPGILTQYGRVLRQPVDRIYFAGTETATHWSGYMEGAVEAGERAAREILHAMGKIPEDEIWQSEPESVDVPAQPITTTFLERHLPSVPGLLRLIGLTTIFSATALGFLAHKRGLLVRV |  |  |  |  |  |  | dark band

Further lines, with some results ahead:

Row | MAO B Expressed (MAO B [1]) | restoration of active MAO B (in words) (MAO B [2]) | Percent of Holo-MAO B Activity (MAO B [2]) [%] | Percent of Holo-MAO B Activity (MAO B [2]; listed as 8α-hydroxyriboflavin) [%] | Molecule | Enzymatic Activity (MAO B [2]) | MAO B activity relative to that obtained with riboflavin (MAO B [2]; Rib^- COS-7 cells) | [^14 C] FAD incorporation (band on fluorogram) (MAO B [3])
5 | 0.81 ± 0.17 | equal levels of MAO B activity |  |  | Cc1cc2nc3c(=O)[nH]c(=O)nc-3n(C[C@H](O)[C@H](O)[C@H](O)COP(=O)(O)O)c2cc1C [FMN] | 0.85 ± 0.03 μmol benzylamine/minute/mg MAO |  | 
6 | 0.95 ± 0.08 |  | 39.8 | 40 | Cc1cc2nc3c(=O)[nH]c(=O)nc-3n(C[C@H](O)[C@H](O)[C@H](O)CO)c2cc1CO [8α-OH Rib, 8α-hydroxyriboflavin] | 0.45 ± 0.01 μmol benzylamine/minute/mg MAO | about one half of that obtained with the addition of riboflavin | 
